“Also recorded” adds a separate entry of the source.
Experiments:
[1] = 14 days; cited from earlier work
[2] = test system: 1α-hydroxylase; experiment: Experiment 3: 1-hydroxylase in renal mitochondria; type: in vivo, rat; details: for Renal mitochondria 1a-hydroxylase: 6 weeks
Protocol: (§1) Male, Wistar rats were obtained at 120-130 g, and placed on a 0.01% calcium, 0.7% phosphate diet that was vitamin D deficient (Teklad Test Diets, Madison, WI) this was for one week to help deplete vitamin D stores. For the next three weeks the rats were fed the vitamin D-deficient diet, but with normal, 0.5%, calcium. Starting with these 3 weeks, the rats were divided into four vitamin D3 -treatment groups, initially, nine rats per group: group a) supplemented once weekly with 0.6 μg vitamin D3 (average dose, 0.08 μg/day); group b) supplemented once every second day with vitamin D3 to provide 2 nmol/day, i.e., each dose was 4 nmol of vitamin D3; group c) supplemented once every second day with vitamin D3 to provide 8 μg/day. The preceding groups all received the vitamin D3 through an infant-feeding tube inserted through the mouth into the stomach. One group, d), received its vitamin D3 in the ethanol applied onto a shaved 2 cm×2 cm patch of skin on the back, this was done every second day to provide vitamin D3 at 8 μg/day. The volume of each dose of vitamin D3 given was adjusted so that the stated doses are per 250 g body weight. Over a second 3-week period while maintaining the described vitamin D3 dosing regimens, diet calcium content was changed weekly and blood sampling was started (that is, changes in calcium and sampling was from weeks 4 to 6, inclusive, of receiving the appropriate vitamin D3 supplement). Diet calcium was first dropped to 0.01% then raised to 1.5% and finally dropped again to 0.01%. For each week of dietary calcium manipulation, blood was obtained at day zero (the day of but just prior to the change in calcium), and days 1, 3, and 7 after the change. During the first week, 0.5 mL of blood was taken on the first two of these days and anticoagulated with heparin, the cells were isolated and resuspended in normal rat plasma and reinjected into the femoral vein. […] For the subsequent samplings, only 0.2-0.3 mL of blood was taken by bleeding from the tail into precalibrated microcentrifuge tubes. In this way, the bleeds prior to sacrifice removed a net total of less than 2 mL of blood, that is, less than or equal to 10% of the blood volume. Samples of daytime urine was collected into microfuge tubes that were fastened to the cones of metabolic collection funnels designed to hang under the wire cages. The cages and cones were rinsed with 0.1 mol/L hydrochloric acid prior to each collection. To eliminate contamination of the urine with diet, stool or water, the rats were placed into these separate cages only during the urine-collection period, until about 1 mL urine was present in the microfuge tube, this was typically within 5 min to one hour.
Biochemical measurements. 1,25(OH)2 D3 in serum was measured by calf-thymus receptor-binding assay after initial purification of 1,25(OH)2 D3 with C18-OH cartridges (5). For the serum volumes that were minimal, serum was measured out in 50 μL increments, and the final result was adjusted for the volume of sample analyzed. To measure 1α-hydroxylase in renal mitochondria, the incubation was as described previously, except the substrate was 20 μmol/L nonradioactive 25(OH)D3. The assay was stopped by addition of 2.5 mL methanol. To monitor recovery of 1,25 (OH)2 D3, 2000 cpm of [^3 H]--1,25(OH)2 D3 were added in 50 μL ethanol prior to further extraction with two additions of 1.25 mL methylene chloride. The methylene chloride layer was taken and evaporated to dryness, redissolved in hexane, isopropanol, methanol (90:9: 1) for purification by HPLC, Zorbax-Sil column. The material eluting as 1,25(OH)2 D3 was evaporated and redissolved in acetonitrile: water for further purification with C18-OH cartridges and quantitation by thymus receptor assay, as described for serum. Renal 24-hydroxylase was measured by incubating mitochondria with [^3 H]-25(OH)D3 as substrate (Vieth and Fraser, J Biol Chem. 254:12455-12460;1979). […]

[3] = Experiment 3: serum calcium, phosphate, alkaline phosphatase and body weight after 6 weeks; type: in vivo, Male Wistar rats; details: for Serum Alkaline phosphatase: 6 weeks
Protocol: as §1, with “hour. […]” for “hour.”

[4] = Experiment 4: short-term serum 25(OH)D3 response to increasing vitamin D3 doses; type: in vivo, rats; details: first 48 hours
Protocol: Each point represents the mean ±SEM of 7 normal, 250-g rats;
Toxicity: Short-term responses to increasing doses of vitamin D3 given dermally or by gastric tube.
To compare the efficacy of increasing doses of vitamin D3 in the short term. A fatal oral vitamin D3 dose is 14 days of 2600 μg/day (Sheppard RM and DeLuca HF, Arch Biochem Biophys 1980; 202: 43-55). The present experiment was designed to compare effects of doses up to this level, given by gastric tube or dermally.

Question: What does the source list for `C=C1CC[C@H](O)C/C1=C/C=C1\CCC[C@]2(C)[C@@H]([C@H](C)CCCC(C)C)CC[C@@H]12` [vitamin D3]?
Answer: fatal oral dose [1]: 2600 µg/day; difference between the two routes in activities of renal enzymes (1-hydroxylase) ([2]; 20 nmol/250 g/day): no significant difference between the two routes; Renal mitochondria 1a-hydroxylase ([2]; 0.08 μg/day diet): 1052 fmol/mg/mi; Renal mitochondria 1a-hydroxylase ([2]; 0.8 μg/day G1 (gastric)): 993 fmol/mg/mi; Renal mitochondria 1a-hydroxylase ([2]; 8 μg/day G1 (gastric)): 539 fmol/mg/mi; Renal mitochondria 1a-hydroxylase ([2]; 8 μg/day dermal): 630 fmol/mg/mi; 1-hydroxylase in kidney ([2]; 8 μg/day, gastric and dermal, vs groups with less vitamin D3): suppressed 1-hydroxylase in kidney; Serum Alkaline phosphatase ([3]; 0.08 μg/day diet): 119 U/L; Serum Alkaline phosphatase ([3]; 0.8 μg/day G1 (gastric)): 151 U/L; Serum Alkaline phosphatase ([3]; 8 μg/day G1 (gastric)): 147 U/L; Serum Alkaline phosphatase ([3]; 8 μg/day dermal): 152 U/L; body weight difference between groups ([3]; end of experiment 3): no weight differences between the groups; serum 25(OH)D3 vs dose ([4]; dermal, 800 to 2600 μg): does not parallel the vitamin D3 dose beyond the 800 μg (2000 nmol)/day dose; also recorded: striking plateau; serum 25(OH)D3 vs dose ([4]; gastric, up to 2600 μg): parallels the vitamin D3 dose; also recorded: increased in a direct parallel to the dose

— US5532229A, “Topical administration of vitamin D to mammals” (priority 1994, dated 1996)
